Measurements taken from patent US9850272B2, “Therapeutically active estratrienthiazole derivatives as inhibitors of 17.beta-hydroxy-steroid dehydrogenase, type 1” (FORENDO PHARMA LTD, priority 2013, dated 2017).

Tests used:
[1] = molecular target: T1, Recombinant Human 17β-HSD1 (Homo sapiens, UniProt P14061); experiment: Inhibition of recombinant human 17β-HSD1 (conversion of 3H-estrone to estradiol, HPLC); type: biochemical; details: inhibitor at 1 μM; 30 nM estrone, 1 mM NADPH, 30 min at RT; read-out: 17β-HDS1 Inhibition % at 1 μM
T1 construct: made in house; host or cells: Sd9 (Sf9) insect cells, baculovirus (Bac to Bac Expression System)
T1 sequence (P14061 1-328): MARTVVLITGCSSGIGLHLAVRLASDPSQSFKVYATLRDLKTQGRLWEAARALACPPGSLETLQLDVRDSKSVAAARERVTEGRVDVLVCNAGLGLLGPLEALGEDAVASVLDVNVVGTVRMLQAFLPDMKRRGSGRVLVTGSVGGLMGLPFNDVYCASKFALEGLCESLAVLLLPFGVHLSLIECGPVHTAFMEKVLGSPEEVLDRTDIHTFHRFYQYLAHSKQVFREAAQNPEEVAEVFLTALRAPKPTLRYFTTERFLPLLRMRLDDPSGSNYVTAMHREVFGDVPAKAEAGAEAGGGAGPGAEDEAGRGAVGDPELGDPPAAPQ
Description: 17β-HSD1 Production and Isolation:
Recombinant baculovirus was generated by the “Bac to Bac Expression System” (Invitrogen). Recombinant bacmid was transfected to Sd9 insect cells using “Cellfectin Reagent” (Invitrogen). 60 h later cells were harvested; the microsomal fraction was isolated as described by Puranen, T. J., Poutanen, M. H., Peltoketo, H. E., Vihko, P. T. and Vihko, R. K. (1994) Site-directed mutagenesis of the putative active site of human 17 β-hydroxysteroid dehydrogenase type 1. Biochem. J. 304: 289-293. Aliquots were stored frozen until determination of enzymatic activity.
Assay—Inhibition of Recombinant Human 17β-HSD1:
Recombinant protein (1 μg/ml) was incubated in 20 mM KH2PO4 pH 7.4 with 30 nM estrone (including 800.000 cpm/ml of ^3H-estrone) and 1 mM NADPH for 30 min at RT, in the presence of the potential inhibitor at concentrations 1 μM or 0.1 μM. Inhibitor stock solutions were prepared in DMSO. Final concentration of DMSO was adjusted to 1% in all samples. The enzyme reaction was stopped by addition of 10% trichloroacetic acid (final concentration). Samples were centrifuged in a microtiter plate at 4000 rpm for 10 min. Supernatants were applied to reverse phase HPLC on a Waters Symmetry C18 column, equipped with a Waters Sentry Guard column. Isocratic HPLC runs were performed at RT at a flow rate of 1 ml/min in acetonitrile:water 48:52 as running solvent. Radioactivity was monitored in the eluate by a Packard Flow Scintillation Analyzer. Total radioactivity for estrone and estradiol were determined in each sample and percent conversion of estrone to estradiol was calculated according to the following formula:
(§1) Percent inhibition was calculated flowingly: % inhibition=100−% conversion

[2] = molecular target: T2, Recombinant Human 17β-HSD2 (Homo sapiens, UniProt P37059); experiment: Inhibition of recombinant human 17β-HSD2 (conversion of 3H-estradiol to estrone, HPLC); type: biochemical; details: inhibitor at 1 μM; 50 nM estradiol, 1 mM NADH, 30 min at RT; read-out: 17β-HSD2 Inhibition % at 1 μM
T2 construct: made in house; host or cells: Sd9 (Sf9) insect cells, baculovirus (Bac to Bac Expression System)
T2 sequence (P37059 1-387): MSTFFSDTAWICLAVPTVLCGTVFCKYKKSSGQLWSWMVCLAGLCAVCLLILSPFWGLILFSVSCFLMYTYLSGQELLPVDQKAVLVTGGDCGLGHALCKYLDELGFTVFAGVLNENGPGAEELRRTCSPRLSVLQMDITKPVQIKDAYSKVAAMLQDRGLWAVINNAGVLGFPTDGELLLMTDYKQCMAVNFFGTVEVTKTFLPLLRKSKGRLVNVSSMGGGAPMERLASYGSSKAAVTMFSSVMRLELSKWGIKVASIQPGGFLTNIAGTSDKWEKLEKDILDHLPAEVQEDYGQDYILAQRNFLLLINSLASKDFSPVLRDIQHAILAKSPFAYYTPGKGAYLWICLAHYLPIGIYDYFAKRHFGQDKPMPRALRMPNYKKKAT
Description: 17β-HSD2 Production and Isolation:
Similarly to 17β-HSD1 the Recombinant baculovirus was generated by the “Bac to Bac Expression System” (Invitrogen). Recombinant bacmid was transfected to Sd9 insect cells using “Cellfectin Reagent” (Invitrogen). 60 h later cells were harvested and supernatant were fractionated by the following protocol: • cells were dissolved into 40 ml of A-buffer (40 mM TRIS, pH8.0, 20% glycerol, 20 μM NAD, 0.4 mM PMSF, 150 mM NaCl, 0.5% dodecyl-β-maltoside+protease inhibitor cocktail) • cells were sonicated • lysate was incubated on ice for 15 min • lysate was centrifuged 5000 rpm 15 min, +4° C. • centrifugation of the supernatant 180.000 g 30 min, +4° C. • pellet was dissolved into 8 ml of A-buffer • not resuspended material was removed by centrifugation 5000 rpm 15 min, +4° C. • the clear supernatant was divided into 100 μl aliquots and were stored frozen until determination of enzymatic activity.
The amount of 17β-HSD2 was analysed by immunoblotting and total protein concentration of each extract batch was determined.
Assay—Inhibition of Recombinant Human 17β-HSD2:
Recombinant protein (4 μg/ml) was incubated in 20 mM KH2PO4 pH 8.5 with 50 nM estradiol (including 800.000 cpm/ml of ^3H-estradiol) and 1 mM NADH for 30 min at RT, in the presence of the potential inhibitor at concentrations 1 μM or 0.1 μM. Inhibitor stock solutions were prepared in DMSO. Final concentration of DMSO was adjusted to 1% in all samples. The enzyme reaction was stopped by addition of 10% trichloroacetic acid (final concentration). Samples were centrifuged in a microtiter plate at 4000 rpm for 10 min. Supernatants were applied to reverse phase HPLC on a Waters Symmetry C18 column, equipped with a Waters Sentry Guard column. Isocratic HPLC runs were performed at RT at a flow rate of 1 ml/min in acetonitrile:water 48:52 as running solvent. Radioactivity was monitored in the eluate by a Packard Flow Scintillation Analyzer. Total radioactivity for estrone and estradiol were determined in each sample and percent conversion of estradiol to estrone was calculated according to the following formula:
as §1

[3] = Metabolic stability assay, human liver microsome and homogenate incubations; type: in vitro ADME; details: human liver homogenate or microsomes
Description: Metabolic Stability Assay The in vitro metabolic stability of the compounds of the invention was determined for exemplified compounds using human liver microsome and homogenate incubations. The incubation time points used with or without appropriate cofactors were 0 min and 60 min. Samples were collected at both time points and substrates were detected using LC/PDA/TOF-MS. In vitro metabolic stability (% remaining after 60 min in human liver homogenate or microsomes) of the compounds were calculated and the results are summarized in Table 3.

Q: For CO[C@H]1C[C@@H](CCC(=O)Nc2ncc(C)s2)C2C3CCc4cc(O)ccc4C3CC[C@@]21C (stereo partly drawn) [Compound 17, 3-((13S,15R,17S)-3-hydroxy-17-methoxy-13-methyl-7,8,9,11,12,13,14,15,16,17-decahydro-6H-cyclopenta[a]phenanthren-15-yl)-N-(5-methylthiazol-2-yl)propanamide], which inhibition at 1 µM [1] is on record?
A: 79%

Q: What about the inhibition at 1 µM [2] of the same compound?
A: 4%

Q: And the “In vitro metabolic stability, % remaining after 60 min” value [3]?
A: 37%

Q: What does the source list for CCCC[C@]1(O)C[C@@H](CCC(=O)Nc2ncc(C)s2)C2C3CCc4cc(O)ccc4C3CC[C@@]21C (stereo partly drawn) [Compound 19, 3-((13S,15R,17S)-17-butyl-3,17-dihydroxy-13-methyl-7,8,9,11,12,13,14,15,16,17-decahydro-6H-cyclopenta[a]phenanthren-15-yl)-N-(5-methylthiazol-2-yl)propanamide]?
A: inhibition at 1 µM [1]: 93%; inhibition at 1 µM [2]: 6%; In vitro metabolic stability, % remaining after 60 min [3]: 90%
